How the values were obtained:
Human plasma kallikrein = Human plasma kallikrein (Homo sapiens (Human), UniProt P03952); assay: Determination of the IC50 for plasma kallikrein; format: biochemical; details: 25° C., fluorogenic substrate H-DPro-Phe-Arg-AFC; read-out: IC50 (human PKaI)
Protocol: Determination of the IC50 for Plasma Kallikrein
(§1) Human plasma kallikrein (Protogen) was incubated at 25° C. with the fluorogenic substrate H-DPro-Phe-Arg-AFC and various concentrations of the test compound. Residual enzyme activity (initial rate of reaction) was determined by measuring the change in […] at 410 nm and the IC50 value for the test compound was determined.

Human KLK1 = Human KLK1 (Homo sapiens (Human), UniProt P06870); assay: Determination of the IC50 for KLK1; format: biochemical; details: 25° C., fluorogenic substrate H-DVal-Leu-Arg-AFC
Protocol: Determination of the IC50 for KLK1
as §1, with “KLK1 (Callbiochem)” for “plasma kallikrein (Protogen)”, “H-DVal-Leu-Arg-AFC” for “H-DPro-Phe-Arg-AFC”

Chain of Human plasma kallikrein (P03952 391-638): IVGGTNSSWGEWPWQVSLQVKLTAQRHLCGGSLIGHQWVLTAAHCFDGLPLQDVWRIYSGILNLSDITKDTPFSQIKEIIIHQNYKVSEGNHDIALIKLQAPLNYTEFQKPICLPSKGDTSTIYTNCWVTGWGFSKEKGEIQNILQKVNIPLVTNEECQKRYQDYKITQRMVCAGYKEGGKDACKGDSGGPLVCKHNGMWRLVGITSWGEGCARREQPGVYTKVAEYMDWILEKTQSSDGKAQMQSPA
Chain of Human plasma kallikrein (P03952 20-390 partner): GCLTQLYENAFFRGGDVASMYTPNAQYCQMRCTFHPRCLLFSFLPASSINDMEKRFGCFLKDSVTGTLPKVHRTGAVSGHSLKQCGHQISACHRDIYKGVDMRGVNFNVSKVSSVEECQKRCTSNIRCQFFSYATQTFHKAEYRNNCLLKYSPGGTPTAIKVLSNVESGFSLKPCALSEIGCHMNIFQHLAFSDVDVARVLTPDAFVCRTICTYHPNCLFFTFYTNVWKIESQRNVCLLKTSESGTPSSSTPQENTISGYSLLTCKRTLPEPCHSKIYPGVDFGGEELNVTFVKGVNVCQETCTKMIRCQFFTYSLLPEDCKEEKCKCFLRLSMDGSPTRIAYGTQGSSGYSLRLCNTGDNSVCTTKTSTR
Chain of Human KLK1 (P06870 25-262): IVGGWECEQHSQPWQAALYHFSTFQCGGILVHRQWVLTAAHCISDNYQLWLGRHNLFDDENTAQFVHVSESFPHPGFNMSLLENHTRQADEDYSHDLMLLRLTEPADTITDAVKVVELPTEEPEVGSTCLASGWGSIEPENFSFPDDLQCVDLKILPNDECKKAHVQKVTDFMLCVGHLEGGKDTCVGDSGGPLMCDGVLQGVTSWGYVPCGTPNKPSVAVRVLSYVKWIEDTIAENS

SMILES | IC50 (Human plasma kallikrein) | IC50 (Human KLK1)
COc1cccc(CNC(=O)c2cn(Cc3ccc(Cn4cc(C)cn4)cc3)nc2C(F)(F)F)c1F [Example 4, N-[(2-fluoro-3-methoxyphenyl)methyl]-1-({4-[(4-methylpyrazol-1-yl)methyl]phenyl}methyl)-3-(trifluoromethyl)pyrazole-4-carboxamide] | 0.136 µM | > 10 µM
COc1cccc(CNC(=O)c2cn(Cc3ccc(Cn4cc(C)cn4)cc3)nc2C(F)(F)F)c1 [Example 5, N-[(3-methoxyphenyl)methyl]-1-({4-[(4-methylpyrazol-1-yl)methyl]phenyl}methyl)-3-(trifluoromethyl)pyrazole-4-carboxamide] | 0.364 µM | > 10 µM
Cc1cnn(Cc2ccc(Cn3cc(C(=O)NCc4cccc(OC(F)(F)F)c4)c(C(F)(F)F)n3)cc2)c1 [Example 7, 1-({4-[(4-methylpyrazol-1-yl)methyl]phenyl}methyl)-N-{[3-(trifluoromethoxy)phenyl]methyl}-3-(trifluoromethyl)pyrazole-4-carboxamide] | > 10 µM | > 10 µM
Cc1ccc(CNC(=O)c2cn(Cc3ccc(Cn4cc(C)cn4)cc3)nc2C(F)(F)F)cc1 [Example 8, N-[(4-methylphenyl)methyl]-1-({4-[(4-methylpyrazol-1-yl)methyl]phenyl}methyl)-3-(trifluoromethyl)pyrazole-4-carboxamide] | 0.539 µM | > 10 µM
COc1ccc(F)c(CNC(=O)c2cn(Cc3ccc(Cn4cc(C)cn4)cc3)nc2C(F)(F)F)c1 [Example 9, N-[(2-fluoro-5-methoxyphenyl)methyl]-1-({4-[(4-methylpyrazol-1-yl)methyl]phenyl}methyl)-3-(trifluoromethyl)pyrazole-4-carboxamide] | 0.239 µM | > 10 µM
COc1ccc(CNC(=O)c2cn(Cc3ccc(Cn4cc(C)cn4)cc3)nc2C(F)(F)F)c(OC)c1 [Example 10, N-[(2,4-dimethoxyphenyl)methyl]-1-({4-[(4-methylpyrazol-1-yl)methyl]phenyl}methyl)-3-(trifluoromethyl)pyrazole-4-carboxamide] | 1.27 µM | > 10 µM
COc1cc(F)c(CNC(=O)c2cn(Cc3ccc(Cn4cc(C)cn4)cc3)nc2C(F)(F)F)c(F)c1 [Example 11, N-[(2,6-difluoro-4-methoxyphenyl)methyl]-1-({4-[(4-methylpyrazol-1-yl)methyl]pheny}methyl)-3-(trifluoromethyl)pyrazole-4-carboxamide] | 0.456 µM | –
COc1ccc(CNC(=O)c2cn(Cc3ccc(Cn4cc(C)cn4)cc3)nc2C(F)(F)F)c(C(F)(F)F)c1 [Example 12, N-{[4-methoxy-2-(trifluoromethyl)phenyl]methyl}-1-({4-[(4-methylpyrazol-1-yl)methyl]phenyl}methyl)-3-(trifluoromethyl)pyrazole-4-carboxamide] | 0.746 µM | > 10 µM
Cc1cnn(Cc2ccc(Cn3cc(C(=O)NCc4c(F)cccc4F)c(C(F)(F)F)n3)cc2)c1 [Example 13, N-[(2,6-difluorophenyl)methyl]-1-({4-[(4-methylpyrazol-1-yl)methyl]phenyl}methyl)-3-(trifluoromethyl)pyrazole-4-carboxamide] | 0.439 µM | > 10 µM
Cc1cnn(Cc2ccc(Cn3cc(C(=O)NCc4c(F)cccc4Cl)c(C(F)(F)F)n3)cc2)c1 [Example 14, N-[(2-chloro-6-fluorophenyl)methyl]-1-({4-[(4-methylpyrazol-1-yl)methyl]phenyl}methyl)-3-(trifluoromethyl)pyrazole-4-carboxamide] | 0.514 µM | > 10 µM
Cc1cnn(Cc2ccc(Cn3cc(C(=O)NCc4c(F)cccc4C(F)(F)F)c(C(F)(F)F)n3)cc2)c1 [Example 15, N-{[2-fluoro-6-(trifluoromethyl)phenyl]methyl}-1-({4-[(4-methylpyrazol-1-yl)methyl]phenyl}methyl)-3-(trifluoromethyl)pyrazole-4-carboxamide] | 0.219 µM | > 10 µM
Cc1cnn(Cc2ccc(Cn3cc(C(=O)NCc4c(F)cc(Cl)cc4F)c(C(F)(F)F)n3)cc2)c1 [Example 16, N-[(4-chloro-2,6-difluorophenyl)methyl]-1-({4-[(4-methylpyrazol-1-yl)methyl]phenyl}methyl)-3-(trifluoromethyl)pyrazole-4-carboxamide] | 0.263 µM | > 10 µM
Cc1cnn(Cc2ccc(Cn3cc(C(=O)NCc4ccc(Cl)cc4F)c(C(F)(F)F)n3)cc2)c1 [Example 17, N-[(4-chloro-2-fluorophenyl)methyl]-1-({4-[(4-methylpyrazol-1-yl)methyl]phenyl}methyl)-3-(trifluoromethyl)pyrazole-4-carboxamide] | 0.865 µM | > 10 µM
Cc1cnn(Cc2ccc(Cn3cc(C(=O)NCc4c(F)ccc(Cl)c4F)c(C(F)(F)F)n3)cc2)c1 [Example 18, N-[(3-chloro-2,6-difluorophenyl)methyl]-1-({4-[(4-methylpyrazol-1-yl)methyl]phenyl}methyl)-3-(trifluoromethyl)pyrazole-4-carboxamide] | 0.373 µM | > 10 µM
Cc1cnn(Cc2ccc(Cn3cc(C(=O)NCc4cccc(Cl)c4F)c(C(F)(F)F)n3)cc2)c1 [Example 19, N-[(3-chloro-2-fluorophenyl)methyl]-1-({4-[(4-methylpyrazol-1-yl)methyl]phenyl}methyl)-3-(trifluoromethyl)pyrazole-4-carboxamide] | 1.13 µM | > 10 µM
Cc1cnn(Cc2ccc(Cn3cc(C(=O)NCc4cc(Cl)ccc4F)c(C(F)(F)F)n3)cc2)c1 [Example 20, N-[(5-chloro-2-fluorophenyl)methyl]-1-({4-[(4-methylpyrazol-1-yl)methyl]phenyl}methyl)-3-(trifluoromethyl)pyrazole-4-carboxamide] | 0.74 µM | > 10 µM
Cc1cnn(Cc2ccc(Cn3cc(C(=O)NCc4c(C(F)(F)F)ccc(Cl)c4F)c(C(F)(F)F)n3)cc2)c1 [Example 21, N-{[3-chloro-2-fluoro-6-(trifluoromethyl)phenyl]methyl}-1-({4-[(4-methylpyrazol-1-yl)methyl]phenyl}methyl)-3-(trifluoromethyl)pyrazole-4-carboxamide] | 0.257 µM | > 10 µM
Cc1cnn(Cc2ccc(Cn3cc(C(=O)NCc4c(Cl)cccc4Cl)c(C(F)(F)F)n3)cc2)c1 [Example 22, N-[(2,6-dichlorophenyl)methyl]-1-({4-[(4-methylpyrazol-1-yl)methyl]phenyl}methyl)-3-(trifluoromethyl)pyrazole-4-carboxamide] | 1.35 µM | > 10 µM
Cc1cnn(Cc2ccc(Cn3cc(C(=O)NCc4cc(Cl)ccc4C(F)(F)F)c(C(F)(F)F)n3)cc2)c1 [Example 23, N-{[5-chloro-2-(trifluoromethyl)phenyl]methyl}-1-({4-[(4-methylpyrazol-1-yl)methyl]phenyl}methyl)-3-(trifluoromethyl)pyrazole-4-carboxamide] | 1.06 µM | > 10 µM
Cc1ccc(CNC(=O)c2cn(Cc3ccc(Cn4cc(C)cn4)cc3)nc2C(F)(F)F)c(C)c1 [Example 24, N-[(2,4-dimethylphenyl)methyl]-1-({4-[(4-methylpyrazol-1-yl)methyl]phenyl}methyl)-3-(trifluoromethyl)pyrazole-4-carboxamide] | 0.717 µM | > 10 µM
Cc1cnn(Cc2ccc(Cn3cc(C(=O)NCc4c(C)cccc4C)c(C(F)(F)F)n3)cc2)c1 [Example 25, N-[(2,6-dimethylphenyl)methyl]-1-({4-[(4-methylpyrazol-1-yl)methyl]phenyl}methyl)-3-(trifluoromethyl)pyrazole-4-carboxamide] | 1.84 µM | > 10 µM
Cc1cc(C)c(CNC(=O)c2cn(Cc3ccc(Cn4cc(C)cn4)cc3)nc2C(F)(F)F)c(C)c1 [Example 26, 1-({4-[(4-methylpyrazol-1-yl)methyl]phenyl}methyl)-3-(trifluoromethyl)-N-[(2,4,6-trimethylphenyl)methyl]pyrazole-4-carboxamide] | 1.34 µM | > 10 µM
Cc1cnn(Cc2ccc(Cn3cc(C(=O)NCc4cccc(F)c4C)c(C(F)(F)F)n3)cc2)c1 [Example 27, N-[(3-fluoro-2-methylphenyl)methyl]-1-({4-[(4-methylpyrazol-1-yl)methyl]phenyl}methyl)-3-(trifluoromethyl)pyrazole-4-carboxamide] | > 10 µM | > 10 µM
Cc1ccc(CNC(=O)c2cn(Cc3ccc(Cn4cc(C)cn4)cc3)nc2C(F)(F)F)c(F)c1 [Example 28, N-[(2-fluoro-4-methylphenyl)methyl]-1-({4-[(4-methylpyrazol-1-yl)methyl]phenyl}methyl)-3-(trifluoromethyl)pyrazole-4-carboxamide] | 0.28 µM | > 10 µM
Cc1cnn(Cc2ccc(Cn3cc(C(=O)NCc4ncccc4F)c(C(F)(F)F)n3)cc2)c1 [Example 29, N-[(3-fluoropyridin-2-yl)methyl]-1-({4-[(4-methylpyrazol-1-yl)methyl]phenyl}methyl)-3-(trifluoromethyl)pyrazole-4-carboxamide] | 2.19 µM | > 10 µM
Cc1cnn(Cc2ccc(Cn3cc(C(=O)NCc4cc(Cl)ccn4)c(C(F)(F)F)n3)cc2)c1 [Example 30, N-[(4-chloropyridin-2-yl)methyl]-1-({4-[(4-methylpyrazol-1-yl)methyl]phenyl}methyl)-3-(trifluoromethyl)pyrazole-4-carboxamide] | 0.915 µM | > 10 µM

— patent publication US10364238B2, “N-((het) arylmethyl)-heteroaryl-carboxamides compounds as plasma kallikrein inhibitors” (KALVISTA PHARMACEUTICALS LIMITED, priority 2014, dated 2019)
